Assay [1] has as its system NF-AT (Nuclear Factor of Activated T Cells) protein. The assay can be described thus: NF-AT transcriptional activity, β-galactosidase reporter in Jurkat cells induced by A23187 and PMA. The format is cell-based, human. On the procedure: Cells (3×10^6 cells/ml) were incubated with 10 μM compound according to Example 2 in RPMI-1640 medium (pH=7.4) for 20 min at 37° C. Following this, incubation lasted for an additional 4 h in the presence of 0.5 μM A23187 and 50 ng/ml PMA (12-O-tetradecanoylphorbol-13-acetate). Induced effects can be determined by the β-galactosidase activity of cells treated with the compound according to Example 2 and untreated cells as it catalyzes the transformation of FDG (fluorescein di-β-D-galactopyranoside) into fluorescein. Reading of results was carried out with a SpectraFluor Plus plate reader. Decrease of β-galactosidase activity was compared to the effect of 1 μM cyclosporine A which was served as a positive control.

A further assay has as its system EPO gene. The assay is described as follows: Gene expression in primary astrocytes by qRT-PCR. The format is cell-based, rat. The conditions noted are these: 3 h, Example 2 at 330 nM and 1000 nM, PBT2 at 1000 nM. On the procedure:
(§1) Pure astrocyte culture was obtained from neonatal rats according to the protocol found in literature (Protocols for Neural Cell Culture 2001, pp 117-127. ch 9. Ruth Cole, Jean de Vellis. Preparation of Astrocyte, Oligodendrocyte, and Microglia Cultures from Primary Rat Cerebral Cultures). Astrocytes (1 million) were cultured in 100 mm TC-treated culture dishes (Orange Scientific, Belgium) in an incubator set at 37° C. and 5% CO2 with humid air. The R-enantiomeric derivative according to Example 2 was added to cells in two final concentrations: 330 nM and 1000 nM. Cells were also treated with 1000 nM PBT2 which bears the basic structure of the R-enantiomer according to Example 2 (8-hydroxy-quinoline ring) but contains conformational differences and was developed for the treatment of neurodegenerative disorders (Pub. No.: WO/2004/007461). Treatments were carried out with a 100 μM DMSO-based stock solution. Control cells were treated with the same amount of DMSO without the agent. Each treatment was conducted in three separate culture dishes. After treatment, cells were incubated at 37° C. for 3 h, then the medium was removed, cells were washed with PBS and total RNA was extracted from cells with the Accuzol™ Total RNA Extraction Solution (Bioneer, Daejeon, South Korea), according to the manufacturer's protocol. cDNA transcription was carried out with the High Capacity cDNA Reverse Transcription Kit (Life Technologies, Foster City, Calif., USA). During the test, the expression of four genes (PGK1, EPO, HMOX-1, VEGF) controlled by HIF1a was determined by qRT-PCR, with HPRT gene serving as a control. Relative expression of genes in treated samples was compared to untreated controls. The PCR was conducted with a LightCycler® Nano Instrument (Roche, Budapest, Hungary) in the presence of UPL (Universal Probe Library) probes (HPRT: 95, HMOX1: 4, EPO: 16, VEGF: 1, PGK1: 66), specific primers (HPRT1: 5′-gaccggttctgtcatgtcg-3′, HPRT2: 5′-[…]-3′; HMOX1-1: 5′-[…]-3′, HMOX1-2: 5′-ctgcagctcctcaaacagc-3′; EPO1: 5′-[…]-3′, EPO2: 5′-ccttctgcacagcccatt-3′; VEGF1: 5′-[…]-3′, VEGF2: 5′-[…]-3′; PGK1-1: 5′-[…]-3′, PGK1-2: 5′-gacttggctccattgtcca-3′) in 20 μl PCR reaction volume with 20 ng cDNA template and 10 μl Lightcycler DNA Probes Master (5×) Reagent Kit (Roche) according to the following protocol: activation of enzyme at 95° C. for 10 min, 50 cycles: denaturation at 95° C. for 15 sec, hybridization and polymerization, then detection at 60° C. for 30 sec.

Another assay relates to HMOX-1 gene. The assay is described as follows: Gene expression in primary astrocytes by qRT-PCR. In kind it is cell-based, rat. The conditions noted are these: 3 h, Example 2 at 330 nM and 1000 nM, PBT2 at 1000 nM. On the procedure:
as §1

For the next assay, the system named is PGK1 gene. The assay can be described thus: Gene expression in primary astrocytes by qRT-PCR. The format is cell-based, rat. The conditions noted are these: in the cells. Here is the method:
as §1

In another assay the test system is VEGF gene. The assay can be described thus: Gene expression in primary astrocytes by qRT-PCR. The format is cell-based, rat. The conditions noted are these: in the cells. Here is the method: as §1
For another assay, the system named is erythropoietin protein. The assay is described as follows: Erythropoietin protein expression in hippocampus and cortex of aged animals, chronic treatment, ELISA. In kind it is in vivo, mouse. The conditions noted are these: 18-month-old C57BL/6 female mice, 20 mg/l in drinking water for four months. On the procedure: Twenty-four 18-month-old female C57BL/6 mice (Innovo Ltd., Budapest, Hungary) were treated according to the experimental setup described in Example 34. in two groups: Group 1—control group given normal drinking water, Group 2—treated with the R-enantiomer according to Example 2, administered in drinking water (20 mg/l) for four months. Brain preparation was carried out under conditions described in Example 34. Brain samples were washed with 1×PBS to remove blood, then tissues were homogenized in 1×PBS and for 3 days, they were held at −20° C. overnight and 25° C. at daytime every day. After the third round of thawing, samples were centrifuged (5 min, 5000 rpm) and the supernatant was collected for further protein expression studies. Determination of erythropoietin levels of samples was done with Quantikine® ELISA Mouse Erythropoetin (R&D Systems, cat. no.: MEPOOB) according to the manufacturer's protocol. At the end of the test, the developed colour was measured with a THERMO-LABSYSTEMS Multiskan FC Absorbance Plate Reader at 450 nm. Results obtained through ELISA and measured at 450 nm were compared to standard dilution series of purified mouse EPO. Values (pg/ml) obtained based on the dilution series were compared to actual protein content of tissues. Protein content of tissue homogenates was measured with Nanodrop-1000 adjusted for BSA protein, at 280 nm.

Assay [2] has as its system BALB/c ear skin graft on C57BL/6 recipient mice. The assay is described as follows: Mouse skin transplantation, graft rejection scoring. The conditions noted are these: 5 mg/kg once every day from transplantation; Example 2 orally, tacrolimus intraperitoneal; scoring at day 9 and day 10. The format is in vivo. On the procedure:
Mouse skin transplantation is a standard method to assay host T cell responses to MHC-disparate donor antigens, which protocol was followed in the present example (Garrod and Cahalan; 2008). Briefly, WT C57BL/6 recipient mice (8-12 weeks old) and WT BALB/c donor mice (8-12 weeks old) were anesthetized with a combination of 10 mg/kg Xylazine and 100 mg/kg Ketamine administered by i.p. injection and 0.05 mg/kg Buprenorphine was administered by subcutaneous injection for analgesia. Ear skin (1.0 cm2) from the WT BALB/c donor mouse was grafted onto the flank of the WT C57BL/6 recipient. The implanted skin (graft) was covered with a sterile bandage, which was removed on day 7 post-transplant.
Recipients received either no treatment (controls), or treated with compound according to Example 2 orally at 5 mg/kg dose, once every day until the end of the experiment from the day of transplantation. […]
Different scores were used to define the quality of the grafts: intact grafts (Score 0), early stages of rejection (Score 1-4, corresponding to first clear signals of graft rejection: 1; >25% rejection rate: 2; >50% rejection rate: 3; >75% rejection rate: 4) up to complete graft rejection (Score 5). […] Average scores with SEM were calculated for each group.

The values below come from patent publication US10287265B2, “Enantiomers of 8-hydroxyquinoline derivatives and the synthesis thereof” (AVIDIN Co. Ltd., priority 2015, dated 2019).

“Also recorded” adds a separate entry of the source.

Take `Cc1ccnc(N[C@H](c2ccc(C(F)(F)F)cc2)c2ccc3cccnc3c2O)n1` [Example 2, 7-[(R)-[(4-Methylpyrimidin-2-yl)amino][4-(trifluoromethyl)phenyl]methyl]quinolin-8-ol]: in assay [1], the “inhibition of transcriptional induction regulated by NF-AT (concentration range in words)” value was “inhibits in micromolar concentration”. The IC50 in assay [1] (Homo sapiens, Jurkat cells, 0.5 μM A23187 and 50 ng/ml PMA, 4 h, read-out: half-value concentration for reduction of the transcriptional activity of NF-AT protein) was found to be 2200 nM. Further, in the assay on EPO gene, the “activation of EPO gene expression” value was “capable to increase the gene activity; also recorded: highest inductive effect; also recorded: dose-dependent and robust activation”. Further, in the assay on HMOX-1 gene, the “activation of HMOX-1 gene expression” value was “capable to increase the gene activity; also recorded: caused the induction of HMOX-1 in astrocytes; also recorded: dose-dependent and robust activation”. In addition, in the assay on PGK1 gene, the “increase of PGK-1 gene activity” value is “capable to increase the gene activity”. Moreover, in the assay on VEGF gene, the “increase of VEGF gene activity” value is reported as “capable to increase the gene activity”. Moreover, in the assay on erythropoietin protein, the “EPO protein levels in hippocampal and cortical samples compared to untreated control mice” value is “induced increased EPO protein levels in both hippocampal and cortical samples”. The “skin graft rejection score (0-5)” value in assay [2] was “smaller score values both on day 9 and on day 10”.
